Measurements reported in patent US9949980B2, “Drugs to prevent HPV infection” (Wisconsin Alumni Research Foundation, priority 2008, dated 2018).
Structures can show the parent of a compound that is named as a salt. Where two headings read alike, the source gives them in different places.

Columns and labels:
HPV16 pseudoviruses = assay: microbe, parasite or virus in culture; type: cell-based; details: Human papillomavirus 16, HEK-293T, 48 h
Description: (§1) FIG. 1. High throughout screen (HTS) for identifying inhibitors of HPV infection. Shown is a schematic showing basic steps in the HTS. […] Briefly, HPV16 pseudoviruses containing the SEAP reporter genes are analyzed for their ability to infect as judged by the levels of secreted alkaline phosphatase in the tissue culture supernatant (light grey arrows). Cell viability was assessed in parallel on the same wells (dark grey arrows). In the specific HTS carried out in this study, the compounds were added at 3 uM/1% DMSO final concentration (black arrow) 4 hours prior to infection.
(§2) After incubation at 37° C. for 24 hrs, 35 μL of media was removed. […] Cells were incubated at 37° C. for 48 hrs. 2.5 μL of media was collected for SEAP assay using a PHOSPHA-LIGHT chemiluminescent alkaline phosphatase assay (Applied Biosystems). Cell viability was determined using the CellTiter Glo Luminescent Cell Viability Assay™ (Promega).

in vitro = details: human
Description: as §1, §2

[1] = read-out: Infectivity (SEAP Activity), 3 μM HTS standard concentration, 293T cells, 48 hrs
[2] = read-out: Infectivity vs. viability, 3 μM HTS standard concentration, ratio infectivity/viability

CCNS(=O)(=O)c1ccc(-c2oc3cc(S(=O)(=O)NCC)ccc3c2Cl)cc1 [NRB 00942, 3-chloro-N-ethyl-2-[4-(ethylsulfamoyl)phenyl]-1-benzofuran-6-sulfonamide]
activity at 3 µM (HPV16 pseudoviruses; [1]): 37.7%
activity at 3 µM (HPV16 pseudoviruses; [2]): 37.8%
viability at 52 h, 3 μM (in vitro; Viability (CelTiter Glow)): 99.7%

COc1cc(C=C2SC(=S)NC2=O)cc(Cl)c1OC(C)C [Compound 5868253, 5-(3-chloro-4-isopropoxy-5-methoxybenzylidene)-2-thioxo-1,3-thiazolidin-4-one]
activity at 3 µM (HPV16 pseudoviruses; [1]): 4.97%
activity at 3 µM (HPV16 pseudoviruses; [2]): 7.45%
viability at 52 h, 3 μM (in vitro; Viability (CelTiter Glow)): 66.8%

CCOc1ccc(C(=O)Nc2ccc3oc(-c4ccccc4F)nc3c2)cc1Cl [Compound 6021315, 3-chloro-4-ethoxy-N-[2-(2-fluorophenyl)-1,3-benzoxazol-5-yl]benzamide]
activity at 3 µM (HPV16 pseudoviruses; [1]): 47%
activity at 3 µM (HPV16 pseudoviruses; [2]): 48.8%
viability at 52 h, 3 μM (in vitro; Viability (CelTiter Glow)): 96.3%

O=C1C(=Cc2ccccc2)CCCC1CN1CCOCC1 (stereo not drawn) [NRB 01540, 2-benzylidene-6-(morpholinomethyl)cyclohexan-1-one hydrochloride]
activity at 3 µM (HPV16 pseudoviruses; [1]): 50.5%
activity at 3 µM (HPV16 pseudoviruses; [2]): 49.9%
viability at 52 h, 3 μM (in vitro; Viability (CelTiter Glow)): 101%

Cc1ccc(CN2CCN(S(C)(=O)=O)CC2)cc1 [Compound 5994189, 1-(4-methylbenzyl)-4-(methylsulfonyl)piperazine]
activity at 3 µM (HPV16 pseudoviruses; [1]): 39.8%
activity at 3 µM (HPV16 pseudoviruses; [2]): 36.5%
viability at 52 h, 3 μM (in vitro; Viability (CelTiter Glow)): 109%

Cc1ccccc1C(=O)Nc1cccc(NC(=O)c2ccc(-c3ccc(Br)cc3)o2)c1 [Compound 6021688, 5-(4-bromophenyl)-N-{3-[(2-methylbenzoyl)amino]phenyl}-2-furamide]
activity at 3 µM (HPV16 pseudoviruses; [1]): 40.2%
activity at 3 µM (HPV16 pseudoviruses; [2]): 38.7%
viability at 52 h, 3 μM (in vitro; Viability (CelTiter Glow)): 104%

CC(=O)Oc1ccc(OC(C)=O)c2c1C1C=CC2CC1 [NRB 00571, 6-(acetyloxy)tricyclo[6.2.2.0~2,7~]dodeca-2(7),3,5,9-tetraen-3-yl acetate]
activity at 3 µM (HPV16 pseudoviruses; [1]): 49.3%
activity at 3 µM (HPV16 pseudoviruses; [2]): 45.5%
viability at 52 h, 3 μM (in vitro; Viability (CelTiter Glow)): 108%

Cc1ccnc(NS(=O)(=O)c2ccc(N3C(=O)c4ccccc4C3=O)cc2)n1 [Compound 5842264, 4-(1,3-dioxo-1,3-dihydro-2H-isoindol-2-yl)-N-(4-methyl-2-pyrimidinyl)benzenesulfonamide]
activity at 3 µM (HPV16 pseudoviruses; [1]): 67%
activity at 3 µM (HPV16 pseudoviruses; [2]): 59.6%
viability at 52 h, 3 μM (in vitro; Viability (CelTiter Glow)): 113%

O=C1NC(=S)SC1=Cc1cc(Cl)c(OCc2ccccc2)c(Cl)c1 [Compound 6142367, 5-[4-(benzyloxy)-3,5-dichlorobenzylidene]-2-thioxo-1,3-thiazolidin-4-one]
activity at 3 µM (HPV16 pseudoviruses; [1]): 61.2%
activity at 3 µM (HPV16 pseudoviruses; [2]): 57.9%
viability at 52 h, 3 μM (in vitro; Viability (CelTiter Glow)): 106%

Cc1cccc(C(=O)Nc2cccc(NC(=O)COc3ccccc3Cl)c2)c1 [Compound 6126189, N-(3-{[(2-chlorophenoxy)acetyl]amino}phenyl)-3-methylbenzamide]
activity at 3 µM (HPV16 pseudoviruses; [1]): 49.8%
activity at 3 µM (HPV16 pseudoviruses; [2]): 50.2%
viability at 52 h, 3 μM (in vitro; Viability (CelTiter Glow)): 99.1%

CCOC(=O)[C@H]1C(=O)c2ccccc2C(=O)/C1=C/c1ccc(CC)cc1 [Compound 5860904, ethyl (2R,3E)-3-[(4-ethylphenyl)methylidene]-1,4-dioxonaphthalene-2-carboxylate]
activity at 3 µM (HPV16 pseudoviruses; [1]): 21.9%
activity at 3 µM (HPV16 pseudoviruses; [2]): 33.2%
viability at 52 h, 3 μM (in vitro; Viability (CelTiter Glow)): 66%

Cc1ccc2nc3nc(C)cc(C)c3c(N)c2c1 [Compound 5947488, 2,4,7-trimethylbenzo[b]-1,8-naphthyridin-5-amine]
activity at 3 µM (HPV16 pseudoviruses; [1]): 34.6%
activity at 3 µM (HPV16 pseudoviruses; [2]): 51%
viability at 52 h, 3 μM (in vitro; Viability (CelTiter Glow)): 68%

O=C(Nc1ccc(Cl)cc1)Nc1ccc([N+](=O)[O-])cc1Br [Compound 5191771, N-(2-bromo-4-nitrophenyl)-N′-(4-chlorophenyl)urea]
activity at 3 µM (HPV16 pseudoviruses; [1]): 39.9%
activity at 3 µM (HPV16 pseudoviruses; [2]): 41.9%
viability at 52 h, 3 μM (in vitro; Viability (CelTiter Glow)): 95.2%

CC1=C(C(=O)Nc2ccc(C)c(Cl)c2)C(c2ccc(F)cc2)NC(=O)N1 (stereo not drawn) [Compound 5880766, N-(3-chloro-4-methylphenyl)-4-(4-fluorophenyl)-6-methyl-2-oxo-1,2,3,4-tetrahydro-5-pyrimidinecarboxamide]
activity at 3 µM (HPV16 pseudoviruses; [1]): 31.9%
activity at 3 µM (HPV16 pseudoviruses; [2]): 34.6%
viability at 52 h, 3 μM (in vitro; Viability (CelTiter Glow)): 92%

COc1ccc(N(CC(=O)Nc2ccc(C(C)C)cc2)S(=O)(=O)c2ccccc2)cc1Cl [Compound 6186930, N~2~-(3-chloro-4-methoxyphenyl)-N~1~-(4-isopropylphenyl)-N~2~-(phenylsulfonyl)glycinamide]
activity at 3 µM (HPV16 pseudoviruses; [1]): 37.9%
activity at 3 µM (HPV16 pseudoviruses; [2]): 33.5%
viability at 52 h, 3 μM (in vitro; Viability (CelTiter Glow)): 113%

O=[N+]([O-])c1cc(-n2ncnc2-c2ccc3c(c2)OCO3)ccc1F [Compound 6033199, 5-(1,3-benzodioxol-5-yl)-1-(4-fluoro-3-nitrophenyl)-1H-1,2,4-triazole]
activity at 3 µM (HPV16 pseudoviruses; [1]): 50.6%
activity at 3 µM (HPV16 pseudoviruses; [2]): 47.9%
viability at 52 h, 3 μM (in vitro; Viability (CelTiter Glow)): 106%

COc1ccc(Cl)cc1C(=O)Nc1ccc(NC(=O)c2ccc(C(C)(C)C)cc2)cc1 [Compound 5795860, N-{4-[(4-tert-butylbenzoyl)amino]phenyl}-5-chloro-2-methoxybenzamide]
activity at 3 µM (HPV16 pseudoviruses; [1]): 47.1%
activity at 3 µM (HPV16 pseudoviruses; [2]): 42.4%
viability at 52 h, 3 μM (in vitro; Viability (CelTiter Glow)): 111%

O=C(Nc1ccccc1)Nc1nnc(COc2ccc(Cl)cc2)s1 [Compound 6072068, N-{5-[(4-chlorophenoxy)methyl]-1,3,4-thiadiazol-2-yl}-N′-phenylurea]
activity at 3 µM (HPV16 pseudoviruses; [1]): 54.5%
activity at 3 µM (HPV16 pseudoviruses; [2]): 48.8%
viability at 52 h, 3 μM (in vitro; Viability (CelTiter Glow)): 112%

O=[N+]([O-])c1cccc(C2Nc3ccc(Cl)cc3C3C=CCC32)c1 (stereo not drawn) [Compound 5658856, 8-chloro-4-(3-nitrophenyl)-3a,4,5,9b-tetrahydro-3H-cyclopenta[c]quinoline]
activity at 3 µM (HPV16 pseudoviruses; [1]): 14.4%
activity at 3 µM (HPV16 pseudoviruses; [2]): 19.1%
viability at 52 h, 3 μM (in vitro; Viability (CelTiter Glow)): 75.7%

CC1CCc2c(sc(NC(=O)c3ccccc3)c2C(N)=O)C1 (stereo not drawn) [Compound 6239347, 2-(benzoylamino)-6-methyl-4,5,6,7-tetrahydro-1-benzothiophene-3-carboxamide]
activity at 3 µM (HPV16 pseudoviruses; [1]): 55.1%
activity at 3 µM (HPV16 pseudoviruses; [2]): 40.5%
viability at 52 h, 3 μM (in vitro; Viability (CelTiter Glow)): 136%

CC(c1ccccc1)c1nnc(NC(=O)Nc2ccc(Cl)cc2)s1 (stereo not drawn) [Compound 6040256, N-(4-chlorophenyl)-N′-[5-(1-phenylethyl)-1,3,4-thiadiazol-2-yl]urea]
activity at 3 µM (HPV16 pseudoviruses; [1]): 29.6%
activity at 3 µM (HPV16 pseudoviruses; [2]): 30.4%
viability at 52 h, 3 μM (in vitro; Viability (CelTiter Glow)): 97.5%

CC(=O)Nc1ccccc1NC(=O)c1ccccc1I [Compound 6168016, N-[2-(acetylamino)phenyl]-2-iodobenzamide]
activity at 3 µM (HPV16 pseudoviruses; [1]): 57%
activity at 3 µM (HPV16 pseudoviruses; [2]): 53.7%
viability at 52 h, 3 μM (in vitro; Viability (CelTiter Glow)): 106%

Cc1cc(C=C2C(=O)NC(=S)N(c3ccccc3F)C2=O)c(C)n1C [Compound 6166672, 1-(2-fluorophenyl)-2-thioxo-5-[(1,2,5-trimethyl-1H-pyrrol-3-yl)methylene]dihydro-4,6(1H,5H)-pyrimidinedione]
activity at 3 µM (HPV16 pseudoviruses; [1]): 53.5%
activity at 3 µM (HPV16 pseudoviruses; [2]): 49.2%
viability at 52 h, 3 μM (in vitro): 109%

CC(=NNC(N)=O)C1CC1(C)C(C)(C)C (stereo not drawn) [Compound 5104160, 1-(2-tert-butyl-2-methylcyclopropyl)-1-ethanone semicarbazone]
activity at 3 µM (HPV16 pseudoviruses; [1]): 63%
activity at 3 µM (HPV16 pseudoviruses; [2]): 56.2%
viability at 52 h, 3 μM (in vitro; Viability (CelTiter Glow)): 112%

COc1ccc(CCNc2cc(N3CCN(C(=O)c4ccc(Cl)cc4)CC3)ccc2[N+](=O)[O-])cc1OC [Compound 6144357, 5-[4-(4-chlorobenzoyl)-1-piperazinyl]-N-[2-(3,4-dimethoxyphenyl)ethyl]-2-nitroaniline]
activity at 3 µM (HPV16 pseudoviruses; [1]): 39.5%
activity at 3 µM (HPV16 pseudoviruses; [2]): 46.6%
viability at 52 h, 3 μM (in vitro; Viability (CelTiter Glow)): 84.6%

CSc1nsc(SC)c1NC(=O)OCC1([N+](=O)[O-])COC(C)(C)OC1 [Compound 5893711, (2,2-dimethyl-5-nitro-1,3-dioxan-5-yl)methyl [3,5-bis(methylthio)-4-isothiazolyl]carbamate]
activity at 3 µM (HPV16 pseudoviruses; [1]): 63.3%
activity at 3 µM (HPV16 pseudoviruses; [2]): 58.6%
viability at 52 h, 3 μM (in vitro; Viability (CelTiter Glow)): 108%

COc1cccc(C(=O)Nc2ccc3oc(-c4ccc(F)cc4Cl)nc3c2)c1 [Compound 5715107, N-[2-(2-chloro-4-fluorophenyl)-1,3-benzoxazol-5-yl]-3-methoxybenzamide]
activity at 3 µM (HPV16 pseudoviruses; [1]): 42.5%
activity at 3 µM (HPV16 pseudoviruses; [2]): 38.2%
viability at 52 h, 3 μM (in vitro; Viability (CelTiter Glow)): 111%

O=C(CCSc1ccc(C(F)(F)F)cc1)c1ccco1 [MWP 01152, 1-furan-2-yl-3-[4-(trifluoromethyl)phenyl]sulfanylpropan-1-one]
activity at 3 µM (HPV16 pseudoviruses; [1]): 57.8%
activity at 3 µM (HPV16 pseudoviruses; [2]): 56.1%
viability at 52 h, 3 μM (in vitro; Viability (CelTiter Glow)): 103%

CC(C)(C)NC(=O)C=Cc1cc([N+](=O)[O-])ccc1Sc1ccc(C(F)(F)F)cn1 [BTB 09390, N1-(tert-butyl)-3-(5-nitro-2-{[5-(trifluoromethyl)-2-pyridyl]thio}phenyl)acrylamide]
activity at 3 µM (HPV16 pseudoviruses; [1]): 28.9%
activity at 3 µM (HPV16 pseudoviruses; [2]): 35.6%
viability at 52 h, 3 μM (in vitro; Viability (CelTiter Glow)): 81.2%

CCOc1ccc(N(CC(=O)Nc2c(C)cccc2C)S(=O)(=O)c2ccc(SC)cc2)cc1 [Compound 5740080, N~1~-(2,6-dimethylphenyl)-N~2~-(4-ethoxyphenyl)-N~2~-{[4-(methylthio)phenyl]sulfonyl}glycinamide]
activity at 3 µM (HPV16 pseudoviruses; [1]): 42.2%
activity at 3 µM (HPV16 pseudoviruses; [2]): 40.7%
viability at 52 h, 3 μM (in vitro; Viability (CelTiter Glow)): 104%

O=C(NCc1c(Cl)cccc1Oc1ccccc1)Nc1ccc(F)cc1 [HTS 04313, N-(2-chloro-6-phenoxybenzyl)-N′-(4-fluorophenyl)urea]
activity at 3 µM (HPV16 pseudoviruses; [1]): 36.4%
activity at 3 µM (HPV16 pseudoviruses; [2]): 42.7%
viability at 52 h, 3 μM (in vitro; Viability (CelTiter Glow)): 85.3%

COc1ccc(OC)c(NC(=O)CN(c2cc(OC)ccc2OC)S(C)(=O)=O)c1 [Compound 6167601, N~1~,N~2~-bis(2,5-dimethoxyphenyl)-N~2~-(methylsulfonyl)glycinamide]
activity at 3 µM (HPV16 pseudoviruses; [1]): 59.1%
activity at 3 µM (HPV16 pseudoviruses; [2]): 54.4%
viability at 52 h, 3 μM (in vitro; Viability (CelTiter Glow)): 109%
